From patent publication US12391737B2, “Soluble NPY2 receptor agonists” (Boehringer Ingelheim International GmbH, priority 2020, dated 2025)

Legend:
Solubility determination = conditions: for Sol6: pH 6; for Sol7: pH 7
Method in brief: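 First, TFA-salt peptide was added to 0.1 M sodium diphosphate (pH 6.4 or 7.0) to 10 mg/ml and shaken 2 h at room temperature. Next, insoluble material was filtered off. Finally, filtrate and control, each 1 mg/ml in 50% acetonitrile, were compared by reversed-phase chromatography.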

[1] = biological target: T1, Human Neuropeptide Y2 Receptor (Homo sapiens, UniProt P49146); test: Radioligand binding competition assay (RLB); conditions: Table 3, 125I-PYY(1-36) competition; read-out: Ki
T1 construct: purchased CHEMICON HTS066M
T1 sequence (P49146 1-381): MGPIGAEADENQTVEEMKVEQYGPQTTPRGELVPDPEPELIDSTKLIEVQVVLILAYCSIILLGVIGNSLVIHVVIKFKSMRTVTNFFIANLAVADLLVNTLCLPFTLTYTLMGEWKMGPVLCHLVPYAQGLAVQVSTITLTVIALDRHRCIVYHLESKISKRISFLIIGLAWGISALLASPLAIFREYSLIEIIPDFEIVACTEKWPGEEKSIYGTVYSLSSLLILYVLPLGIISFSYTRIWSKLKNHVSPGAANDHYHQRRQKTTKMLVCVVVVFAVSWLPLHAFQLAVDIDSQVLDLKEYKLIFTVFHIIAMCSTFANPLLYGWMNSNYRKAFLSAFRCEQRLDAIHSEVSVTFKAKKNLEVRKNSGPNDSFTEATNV
Method in brief: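 Displacement of radioligand is measured after 2 h at room temperature with receptor membranes in Mg2+/Ca2+ HEPES buffer, pH 7.4. Filter-bound radioactivity is counted and IC50 obtained from curve fitting.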

SMILES	Sol6 (Solubility determination)	Sol7 (Solubility determination)	Ki [1]
CC(C)CC(=O)N[C@@H](C)C(=O)N1CCC[C@H]1C(=O)N[C@@H](CCC(=O)O)C(=O)N[C@@H](CCCCNC(=O)CCCCCNC(=O)CC[C@H](NC(=O)CCCCCCCCCCCCCCCCC(=O)O)C(=O)O)C(=O)N1CCC[C@H]1C(=O)N[C@@H](CCC(=O)O)C(=O)N[C@@H](C)C(=O)N[C@@H](CC(=O)O)C(=O)N[C@@H](C)C(=O)N[C@@H](CO)C(=O)N1CCC[C@H]1C(=O)N[C@@H](CCC(=O)O)C(=O)N[C@@H](CCC(=O)O)C(=O)N[C@H](C(=O)N[C@@H](CCC(N)=O)C(=O)N[C@@H](CCCNC(=N)N)C(=O)N[C@@H](Cc1ccc(O)cc1)C(=O)N[C@@H](Cc1ccc(O)cc1)C(=O)N[C@H](C(=O)N[C@@H](C)C(=O)N[C@@H](CC(C)C)C(=O)N[C@@H](CCCNC(=N)N)C(=O)N[C@@H](Cc1c[nH]cn1)C(=O)N[C@@H](Cc1ccc(O)cc1)C(=O)N[C@@H](Cc1ccc(O)cc1)C(=O)N[C@@H](CC(N)=O)C(=O)N[C@@H](Cc1c[nH]c2ccccc12)C(=O)N[C@@H](CC(C)C)C(=O)N[C@H](C(=O)N[C@@H](CCCNC(=N)N)C(=O)N[C@@H](CCC(N)=O)C(=O)N[C@@H](CCCNC(=N)N)C(=O)N[C@@H](Cc1ccc(O)cc1)C(N)=O)[C@@H](C)O)C(C)C)[C@@H](C)O [Compound 179, N{alpha-4}-(3-methylbutanoyl)-N{epsilon-7}-(6-[(4S)-4-carboxy-4-(17-carboxyheptadecanamido)butanamido]hexanoyl)-[4A,7K,9E,10A,17T,18Q,22V,23A,28Y,30W,31L]-hPYY(4-36)]	8.1 mg/mL	8.3 mg/mL	0.89 nM
CC(C)CC(=O)N[C@@H](C)C(=O)N1CCC[C@H]1C(=O)N[C@@H](CCC(=O)O)C(=O)N[C@@H](CCCCNC(=O)CCCCCNC(=O)CC[C@H](NC(=O)CCCCCCCCCCCCCCCCC(=O)O)C(=O)O)C(=O)N1CCC[C@H]1C(=O)N[C@@H](CCC(=O)O)C(=O)N[C@@H](CCC(=O)O)C(=O)N[C@@H](CC(=O)O)C(=O)N[C@@H](C)C(=O)N[C@H](C(=O)N1CCC[C@H]1C(=O)N[C@@H](CCC(=O)O)C(=O)N[C@@H](CCC(=O)O)C(=O)N[C@@H](CCC(=O)O)C(=O)N[C@@H](CCC(N)=O)C(=O)N[C@@H](CCCNC(=N)N)C(=O)N[C@@H](Cc1ccc(O)cc1)C(=O)N[C@@H](Cc1ccc(O)cc1)C(=O)N[C@H](C(=O)N[C@@H](CO)C(=O)N[C@@H](CC(C)C)C(=O)N[C@@H](CCCNC(=N)N)C(=O)N[C@@H](Cc1c[nH]cn1)C(=O)N[C@@H](Cc1ccc(O)cc1)C(=O)N[C@@H](Cc1ccc(O)cc1)C(=O)N[C@@H](CC(N)=O)C(=O)N[C@@H](Cc1c[nH]c2ccccc12)C(=O)N[C@@H](CC(C)C)C(=O)N[C@H](C(=O)N[C@@H](CCCNC(=N)N)C(=O)N[C@@H](CCC(N)=O)C(=O)N[C@@H](CCCNC(=N)N)C(=O)N[C@@H](Cc1ccc(O)cc1)C(N)=O)[C@@H](C)O)C(C)C)[C@@H](C)O [Compound 162, N{alpha-4}-(3-methylbutanoyl)-N{epsilon-7}-(6-[(4S)-4-carboxy-4-(17-carboxyheptadecanamido)butanamido]hexanoyl)-[4A,7K,9E,13T,17E,18Q,22V,28Y,30W,31L]-hPYY(4-36)]	9.0 mg/mL	9.3 mg/mL	14.9 nM
CC(C)CC(=O)N[C@@H](C)C(=O)N1CCC[C@H]1C(=O)N[C@@H](C)C(=O)N[C@@H](CCCCNC(=O)CCCCCNC(=O)CC[C@H](NC(=O)CCCCCCCCCCCCCCCCC(=O)O)C(=O)O)C(=O)N1CCC[C@H]1C(=O)N[C@@H](CCC(=O)O)C(=O)N[C@@H](C)C(=O)N[C@@H](CC(=O)O)C(=O)N[C@@H](C)C(=O)N[C@@H](CCC(=O)O)C(=O)N1CCC[C@H]1C(=O)N[C@@H](CCC(=O)O)C(=O)N[C@@H](CCC(=O)O)C(=O)N[C@@H](CC(C)C)C(=O)N[C@@H](CCC(N)=O)C(=O)N[C@@H](CCCNC(=N)N)C(=O)N[C@@H](Cc1ccc(O)cc1)C(=O)N[C@@H](Cc1ccc(O)cc1)C(=O)N[C@H](C(=O)N[C@@H](C)C(=O)N[C@@H](CC(C)C)C(=O)N[C@@H](CCCNC(=N)N)C(=O)N[C@@H](Cc1c[nH]cn1)C(=O)N[C@@H](Cc1ccc(O)cc1)C(=O)N[C@@H](Cc1ccc(O)cc1)C(=O)N[C@@H](CC(N)=O)C(=O)N[C@@H](Cc1c[nH]c2ccccc12)C(=O)N[C@@H](CC(C)C)C(=O)N[C@H](C(=O)N[C@@H](CCCNC(=N)N)C(=O)N[C@@H](CCC(N)=O)C(=O)N[C@@H](CCCNC(=N)N)C(=O)N[C@@H](Cc1ccc(O)cc1)C(N)=O)[C@@H](C)O)C(C)C [Compound 3, N{alpha-4}-(3-methylbutanoyl)-N{epsilon-7}-(6-[(4S)-4-carboxy-4-(17-carboxyheptadecanamido)butanamido]hexanoyl)[4A,6A,7K,9E,10A,13E,18Q,22V,23A,28Y,30W,31L]-hPYY(4-36)]	10.0 mg/mL	10.0 mg/mL	1.57 nM
CC(C)CC(=O)N[C@@H](C)C(=O)N1CCC[C@H]1C(=O)N[C@@H](CCC(=O)O)C(=O)N[C@@H](CCCCNC(=O)CCCCCNC(=O)CC[C@H](NC(=O)CCCCCCCCCCCCCCCCC(=O)O)C(=O)O)C(=O)N1CCC[C@H]1C(=O)N[C@@H](CCC(=O)O)C(=O)N[C@@H](CCC(=O)O)C(=O)N[C@@H](CC(=O)O)C(=O)N[C@@H](C)C(=O)N[C@H](C(=O)N1CCC[C@H]1C(=O)N[C@@H](CCC(=O)O)C(=O)N[C@@H](CCC(=O)O)C(=O)N[C@@H](CC(C)C)C(=O)N[C@@H](CCC(N)=O)C(=O)N[C@@H](CCCNC(=N)N)C(=O)N[C@@H](Cc1ccc(O)cc1)C(=O)N[C@@H](Cc1ccc(O)cc1)C(=O)N[C@H](C(=O)N[C@@H](CC(C)C)C(=O)N[C@@H](CC(C)C)C(=O)N[C@@H](CCCNC(=N)N)C(=O)N[C@@H](Cc1c[nH]cn1)C(=O)N[C@@H](Cc1ccc(O)cc1)C(=O)N[C@@H](Cc1ccc(O)cc1)C(=O)N[C@@H](CC(N)=O)C(=O)N[C@@H](Cc1c[nH]c2ccccc12)C(=O)N[C@@H](CC(C)C)C(=O)N[C@H](C(=O)N[C@@H](CCCNC(=N)N)C(=O)N[C@@H](CCC(N)=O)C(=O)N[C@@H](CCCNC(=N)N)C(=O)N[C@@H](Cc1ccc(O)cc1)C(N)=O)[C@@H](C)O)C(C)C)[C@@H](C)O [Compound 49, N{alpha-4}-(3-methylbutanoyl)-N{epsilon-7}-(6-[(4S)-4-carboxy-4-(17-carboxyheptadecanamido)butanamido]hexanoyl)-[4A,7K,9E,13T,18Q,22V,23L,28Y,30W,31L]-hPYY(4-36)]	>10.0 mg/mL	>10.0 mg/mL	11.6 nM

More lines, now with the values ahead:

Sol6 (Solubility determination)	Sol7 (Solubility determination)	Ki [1]	SMILES
9.7 mg/mL	9.6 mg/mL	9.76 nM	CC(C)CC(=O)N[C@@H](C)C(=O)N1CCC[C@H]1C(=O)N[C@@H](CCC(=O)O)C(=O)N[C@@H](CCCCNC(=O)CCCCCNC(=O)CC[C@H](NC(=O)CCCCCCCCCCCCCCCCC(=O)O)C(=O)O)C(=O)N1CCC[C@H]1C(=O)N[C@@H](CCC(=O)O)C(=O)N[C@@H](CCC(=O)O)C(=O)N[C@@H](CC(=O)O)C(=O)N[C@@H](CCC(N)=O)C(=O)N[C@H](C(=O)N1CCC[C@H]1C(=O)N[C@@H](CCC(=O)O)C(=O)N[C@@H](CCC(=O)O)C(=O)N[C@@H](CC(C)C)C(=O)N[C@@H](CCC(N)=O)C(=O)N[C@@H](CCCNC(=N)N)C(=O)N[C@@H](Cc1ccc(O)cc1)C(=O)N[C@@H](Cc1ccc(O)cc1)C(=O)N[C@H](C(=O)N[C@@H](CO)C(=O)N[C@@H](CC(C)C)C(=O)N[C@@H](CCCNC(=N)N)C(=O)N[C@@H](Cc1c[nH]cn1)C(=O)N[C@@H](Cc1ccc(O)cc1)C(=O)N[C@@H](Cc1ccc(O)cc1)C(=O)N[C@@H](CC(N)=O)C(=O)N[C@@H](Cc1c[nH]c2ccccc12)C(=O)N[C@@H](CC(C)C)C(=O)N[C@H](C(=O)N[C@@H](CCCNC(=N)N)C(=O)N[C@@H](CCC(N)=O)C(=O)N[C@@H](CCCNC(=N)N)C(=O)N[C@@H](Cc1ccc(O)cc1)C(N)=O)[C@@H](C)O)C(C)C)[C@@H](C)O [Compound 144, N{alpha-4}-(3-methylbutanoyl)-N{epsilon-7}-(6-[(4S)-4-carboxy-4-(17-carboxyheptadecanamido)butanamido]hexanoyl)-[4A,7K,9E,12Q,13T,18Q,22V,28Y,30W,31L]-hPYY(4-36)]
>10.0 mg/mL	10.0 mg/mL	2.41 nM	CC(C)CC(=O)N[C@@H](C)C(=O)N1CCC[C@H]1C(=O)N[C@@H](C)C(=O)N[C@@H](CCCCNC(=O)CCCCCNC(=O)CC[C@H](NC(=O)CCCCCCCCCCCCCCCCC(=O)O)C(=O)O)C(=O)N1CCC[C@H]1C(=O)N[C@@H](CCC(=O)O)C(=O)N[C@@H](CCC(=O)O)C(=O)N[C@@H](CC(=O)O)C(=O)N[C@@H](C)C(=O)N[C@@H](CO)C(=O)N1CCC[C@H]1C(=O)N[C@@H](CCC(=O)O)C(=O)N[C@@H](CCC(=O)O)C(=O)N[C@@H](CC(C)C)C(=O)N[C@@H](CCC(N)=O)C(=O)N[C@@H](CCCNC(=N)N)C(=O)N[C@@H](Cc1ccc(O)cc1)C(=O)N[C@@H](CCC(N)=O)C(=O)N[C@H](C(=O)N[C@@H](CO)C(=O)N[C@@H](CC(C)C)C(=O)N[C@@H](CCCNC(=N)N)C(=O)N[C@@H](Cc1c[nH]cn1)C(=O)N[C@@H](Cc1ccc(O)cc1)C(=O)N[C@@H](Cc1ccc(O)cc1)C(=O)N[C@@H](CC(N)=O)C(=O)N[C@@H](Cc1c[nH]c2ccccc12)C(=O)N[C@@H](CC(C)C)C(=O)N[C@H](C(=O)N[C@@H](CCCNC(=N)N)C(=O)N[C@@H](CCC(N)=O)C(=O)N[C@@H](CCCNC(=N)N)C(=O)N[C@@H](Cc1ccc(O)cc1)C(N)=O)[C@@H](C)O)C(C)C [Compound 20, N{alpha-4}-(3-methylbutanoyl)-N{epsilon-7}-(6-[(4S)-4-carboxy-4-(17-carboxyheptadecanamido)butanamido]hexanoyl)[4A,6A,7K,9E,18Q,21Q,22V,28Y,30W,31L]-hPYY(4-36)]
